# Results published in ChEMBL document CHEMBL5360672, “Identification of Novel Dual-Target Estrogen Receptor α Degraders with Tubulin Inhibitory Activity for the Treatment of Endocrine-Resistant Breast Cancer” (J Med Chem, 2023).
# Active and inactive are the calls of the source. The rule behind the calls is not given here.
# Assays:
# [1] = tested on: MCF7; experiment: Antitumor activity against human MCF7 cells xenografted in Balb/c nude mouse assessed as reduction in Ki67 positive cells at 2 to 4 mg/kg, ip administered every other day for 20 days by immunohistochemistry analysis; assay type: functional, organism-based; details: dose 2-4 mg/kg, time 20.0 day
# [2] = target: T1, Estrogen receptor (Homo sapiens) (UniProt P03372); experiment: Binding affinity to human ERalpha assessed as relative binding affinity incubated under vibration for 1 min followed by 2 hrs incubation under dark condition by fluorescence polarization assay relative to estradiol; details: time 121.0 min
# T1 sequence (whole entry): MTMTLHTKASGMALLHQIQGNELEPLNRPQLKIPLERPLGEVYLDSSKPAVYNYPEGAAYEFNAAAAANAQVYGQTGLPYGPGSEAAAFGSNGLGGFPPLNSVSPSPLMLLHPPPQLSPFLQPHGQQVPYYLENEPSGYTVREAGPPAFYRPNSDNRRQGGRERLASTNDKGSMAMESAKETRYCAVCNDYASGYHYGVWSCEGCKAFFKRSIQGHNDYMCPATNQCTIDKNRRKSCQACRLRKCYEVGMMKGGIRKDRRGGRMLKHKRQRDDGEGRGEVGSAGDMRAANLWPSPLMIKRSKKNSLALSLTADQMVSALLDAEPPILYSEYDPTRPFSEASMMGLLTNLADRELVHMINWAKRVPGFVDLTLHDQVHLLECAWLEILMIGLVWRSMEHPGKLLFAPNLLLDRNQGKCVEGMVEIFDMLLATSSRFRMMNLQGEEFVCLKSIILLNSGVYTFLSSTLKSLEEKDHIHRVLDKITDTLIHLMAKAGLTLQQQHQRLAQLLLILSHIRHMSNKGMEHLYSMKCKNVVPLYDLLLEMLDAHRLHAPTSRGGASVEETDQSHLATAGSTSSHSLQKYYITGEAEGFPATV
# [3] = organism: Homo sapiens; experiment: Selectivity ratio of relative binding affinity for human ERalpha to relative binding affinity to human ERbeta
# [4] = target: T2, Tubulin (Homo sapiens) (UniProt P68371+Q9H4B7+P0DPH7+P68366+Q13509+Q71U36+P04350+Q3ZCM7+P07437+P68363+Q9BQE3+Q6PEY2+Q13885+Q9BVA1+Q9BUF5); experiment: Disruption of microtubule network in human MCF7 cells assessed as chaotic microtubule network at 2 uM incubated for 48 hrs by DAPI staining based confocal laser scanning microscopic analysis; assay type: cell-based
# [5] = Antiproliferative activity against human Tamoxifen-resistant LCC2 cells assessed as inhibition of cell proliferation incubated for 72 hrs by CCK8 assay; assay type: functional, cell-based
# [6] = tested on: MCF7; experiment: Antitumor activity against human MCF7 cells xenografted in Balb/c nude mouse assessed as tumor growth inhibition at 4 mg/kg, ip administered every other day for 20 days relative to control; assay type: functional; details: MCF7, 480 h, time 20 day, read-out: TGI
# [7] = Selectivity index, ratio of IC50 for cytotoxicity against human MCF-10A cells to IC50 for antiproliferative activity against human MCF7 cells; assay type: toxicity, cell-based; details: MCF-10A cells and MCF7 cells, read-out: Ratio IC50
# [8] = target: T1, Estrogen receptor (Homo sapiens); experiment: Induction of ERalpha degradation in human MCF7 cells at 5 uM incubated for 24 hrs by Western blot analysis relative to SeCN-OBHSA derivatives; assay type: cell-based
# [9] = tested on: T47D; experiment: Antiproliferative activity against human T47D cells harboring ERalpha D538G mutant assessed as inhibition of cell proliferation incubated for 72 hrs by CCK8 assay; assay type: functional, cell-based
# [10] = Toxicity in Balb/c nude mouse xenografted with human MCF7 cells assessed as body weight loss at 2 to 4 mg/kg, ip administered every other day for 20 days; assay type: organism-based; details: in vivo, 480 h, dose 2-4 mg/kg, time 20 day
# [11] = tested on: Mus musculus; experiment: In vivo induction of ERalpha degradation in BALB/c nude mouse xenografted with human MCF7 cells assessed as decrease in ERalpha expression in tumor at 2 to 4 mg/kg, ip administered every other day for 20 days by Western blot analysis; assay type: functional, organism-based; details: dose 2-4 mg/kg, time 20.0 day
# [12] = Toxicity in Balb/c nude mouse xenografted with human MCF7 cells assessed as effect on kidney morphology at 2 to 4 mg/kg, ip administered every other day for 20 days by H&E staining based analysis; assay type: organism-based; details: in vivo, 480 h, dose 2-4 mg/kg, time 20 day
# [13] = tested on: T47D; experiment: Antiproliferative activity against ERalpha positive human T47D cells assessed as inhibition of cell proliferation incubated for 72 hrs by CCK8 assay; assay type: functional, cell-based
# [14] = Toxicity in Balb/c nude mouse xenografted with human MCF7 cells assessed as effect on liver morphology at 2 to 4 mg/kg, ip administered every other day for 20 days by H&E staining based analysis; assay type: organism-based; details: in vivo, 480 h, dose 2-4 mg/kg, time 20 day
# [15] = target: T2, Tubulin (Homo sapiens); experiment: Disruption of microtubule network in human LCC2 cells assessed as chaotic microtubule network at 4 uM incubated for 48 hrs by DAPI staining based confocal laser scanning microscopic analysis; assay type: cell-based
# [16] = target: T1, Estrogen receptor (Homo sapiens); experiment: Induction of ERalpha degradation in human MCF7 cells at 5 uM incubated for 24 hrs by Western blot analysis; assay type: cell-based
# [17] = tested on: MCF7; experiment: Antiproliferative activity against ERalpha positive human MCF7 cells assessed as inhibition of cell proliferation incubated for 72 hrs by CCK8 assay; assay type: functional, cell-based; details: MCF7, 72 h
# [18] = tested on: T47D; experiment: Antiproliferative activity against human T47D cells harboring ERalpha Y537S mutant assessed as inhibition of cell proliferation incubated for 72 hrs by CCK8 assay; assay type: functional, cell-based
# [19] = tested on: MDA-MB-231; experiment: Antiproliferative activity against ERalpha negative human MDA-MB-231 cells assessed as inhibition of cell proliferation incubated for 72 hrs by CCK8 assay; assay type: functional, cell-based; details: MDA-MB-231, 72 h
# [20] = target: T2, Tubulin (Homo sapiens); experiment: Disruption of microtubule network in human LCC2 cells assessed as ruptured microtubule network at 4 uM incubated for 48 hrs by DAPI staining based confocal laser scanning microscopic analysis; assay type: cell-based
# [21] = target: T1, Estrogen receptor (Homo sapiens); experiment: Induction of ERalpha degradation in human MCF7 cells incubated for 6 to 24 hrs by Western blot analysis; assay type: cell-based; details: dose 0.5-5 µM, time 6-24 hrs
# [22] = tested on: MCF7; experiment: Induction of cell cycle arrest in human MCF7 cells assessed as increase in G2/M phase cells at 0 to 8 uM incubated for 48 hrs by flow cytometry analysis (reference value: 20.10%); assay type: functional; details: dose 0-8 µM
# [23] = tested on: MCF7; experiment: Antitumor activity against human MCF7 cells xenografted in Balb/c nude mouse assessed as tumor growth inhibition at 2 mg/kg, ip administered every other day for 20 days relative to control; assay type: functional; details: MCF7, 480 h, time 20 day, read-out: TGI
# [24] = Toxicity in Balb/c nude mouse xenografted with human MCF7 cells assessed as effect on heart morphology at 2 to 4 mg/kg, ip administered every other day for 20 days by H&E staining based analysis; assay type: organism-based; details: in vivo, 480 h, dose 2-4 mg/kg, time 20 day
# [25] = Cytotoxicity against human MCF-10A cells assessed as inhibition of cell proliferation incubated for 72 hrs by CCK8 assay; assay type: toxicity, cell-based
# [26] = target: T1, Estrogen receptor (Homo sapiens); experiment: Induction of ERalpha degradation in human MCF7 cells at 1 uM incubated for 6 to 24 hrs by Western blot analysis; assay type: cell-based; details: time 6-24 hrs
# [27] = target: T2, Tubulin (Homo sapiens); experiment: Inhibition of tubulin polymerization (unknown origin) at 30 uM incubated for 60 mins by microplate reader analysis; assay type: protein-complex assay
# [28] = target: T2, Tubulin (Homo sapiens); experiment: Disruption of microtubule network in human MCF7 cells assessed as ruptured microtubule network at 2 uM incubated for 48 hrs by DAPI staining based confocal laser scanning microscopic analysis; assay type: cell-based
# [29] = target: T1, Estrogen receptor (Homo sapiens); experiment: Induction of ERalpha degradation in human Tamoxifen-resistant LCC2 cells at 0.5 to 5 uM incubated for 6 to 24 hrs by Western blot analysis; assay type: cell-based; details: Tamoxifen-resistant LCC2 cell, dose 0.5-5 µM, time 6-24 hrs
compound,measurement,setting,value
N#C[Se]CCCCCC(=O)Nc1ccc(C2=C(c3ccc(O)cc3)C3CC(S(=O)(=O)N(CC(F)(F)F)c4ccccc4F)C2O3)cc1 (centres undefined),Activity,[1],Active
same,RBA,[2],8.57%
same,Selectivity ratio,[3],85.7
same,Activity,[4],Active
same,IC50,[5],1.59 µM
same,inhibition in vivo at 4 mg/kg,[6],77.7%
same,selectivity ratio,[7],264
same,Activity,[8],Active
same,IC50,[9],1.67 µM
same,Activity,[10],Non-Toxic
same,Activity,[11],Active
same,Activity,[12],Non-Toxic
same,IC50,[13],2.56 µM
same,Activity,[14],Non-Toxic
same,Activity,[15],Active
same,Activity,[16],Active
same,IC50,[17],0.06 µM
same,IC50,[18],1.37 µM
same,IC50,[19],3.75 µM
same,Activity,[20],Active
same,Activity,[21],Dose-Dependent Effect
same,Activity,[22],40.88%
same,inhibition in vivo at 2 mg/kg,[23],74.6%
same,Activity,[24],Non-Toxic
same,IC50 at 72 h,[25],15.8 µM
same,Activity,[26],Active
same,tubulin polymerization inhibition (active/not active),[27],Active
same,Activity,[28],Active
same,Activity,[29],Active
